According to patent US6030943A, “Dehydrodidemnin B as an L-type calcium channel enhancer” (priority 1998, dated 2000):
Starred links: 1 amine or outer side, 2 acyl side, 3 side chain; linkers in the order of their positions; H or OH if unused. Positions of bridges follow the written chain, without caps; N, C: chain ends. Non-standard residues stand in square brackets, D forms with d. Residues, ends and D or L forms follow the SMILES beside them. *: point of attachment. X1 = CC[C@H](C)[C@@H](N[*:1])[C@@H](O)CC(=O)O[C@H](C(=O)[C@H](C)C(=O)[*:2])C(C)C; NMeY = CN[C@@H](Cc1ccc(O)cc1)C(=O)O; dNMeL = CN[C@H](CC(C)C)C(=O)O; Pyruvoyl = CC(=O)C(=O)*

Assays:
[1] = system: L-type calcium channel; experiment: Whole-cell patch clamp measurement of calcium current (ICa) in isolated human atrial myocytes; format: cell-based; conditions: for action on human atrial ICa (current amplitude): whole-cell patch clamp, 22° C., composite dose-response curve (FIG. 2), compared with cells not exposed to drug
Description: Human atrial myocytes were obtained from specimens of human right atrial appendage obtained during surgery from hearts of patients undergoing cardiopulmonary bypass. Tissue samples were quickly immersed in a cardioplegia solution consisting of (in mmol/L): 50 KH2 PO4, 8 MgSO4, 10 NaHO3, 5 adenosine, 25 taurine, 140 glucose, and 100 mannitol, titrated to a pH of 7.4 and bubbled with 100% O2 at 0-4° C. Specimens were then minced into 0.5-1 mm cubes and transferred to a 50 ml conical tube containing an ultra-low calcium wash solution containing (in mmol/L); 137 NaCl, 5 KH2 PO4, 1 MgSO4, 10 taurine, 10 glucose, 5 HEPES, and 100 μmol/L (μM) EGTA; pH=7.4 (22-24° C.).
The tissue was next gently agitated by continuous bubbling with 100% O2 for 5 minutes. The tissue was then incubated in 5 ml of solution containing (in mmol/L): 137 NaCl, 5 KH2 PO4, 10 taurine, 10 glucose, 5 HEPES, supplemented with 0.1% bovine albumin, 2.2 mg/ml collagenase type V and 1.0 mg/ml protease type XXIV (Sigma Chemical), pH=7.4 (37° C.) and bubbled continuously with 100% O2. The supernatant was removed after 40 minutes and discarded. The chunks were incubated in a solution of the same ionic composition but supplemented with only collagenase and 100 μmol/L CaCl2.
Microscopic examination of the medium was performed every 5-10 minutes to determine the number and quality of the isolated cells. When the yield appears to be maximal, the cell suspension was centrifuged for 2 minutes and the resulting pellet was resuspended in a modified Kraftbruhe solution containing (in mmol/L): 25 KCl, 10 KH2 PO4, 25 taurine, 0.5 EGTA, 22 glucose, 55 glutamic acid, and 0.1% bovine albumin, pH=7.3 (22-24° C.). Cells were used within 8 hrs after isolation. […]
Ionic currents were measured using the whole-cell variant of the patch clamp technique. […]
Calcium (Ca) currents were measured using an external solution having the composition (in mM): 1.8 CaCl2, 137 NaCl, 20 CsCl, 4 KCl, 1 MgCl2, 10 HEPES, 10 dextrose pH=7.4 with NaOH. […]

[2] = Effect on blood pressure (statement, no method described); conditions: in vivo

Row | Structure (SMILES) | action on human atrial ICa (current amplitude) [1] | effect on blood pressure [2] | L-type calcium channel enhancement ([1]; FIGS. 1A, 1B and 2)
1 | CC[C@H](C)[C@H]1NC(=O)[C@@H](NC(=O)[C@@H](CC(C)C)N(C)C(=O)[C@@H]2CCCN2C(=O)C(C)O)[C@@H](C)OC(=O)[C@H](Cc2ccc(OC)cc2)N(C)C(=O)[C@@H]2CCCN2C(=O)[C@H](CC(C)C)NC(=O)[C@@H](C)C(=O)[C@H](C(C)C)OC(=O)C[C@@H]1O (stereo partly shown) [Didemnin B] | no effect |  | 
2 | CC[C@H](C)[C@H]1NC(=O)[C@@H](NC(=O)[C@@H](CC(C)C)N(C)C(=O)[C@@H]2CCCN2C(=O)C(C)=O)[C@@H](C)OC(=O)[C@H](Cc2ccc(OC)cc2)N(C)C(=O)[C@@H]2CCCN2C(=O)[C@H](CC(C)C)NC(=O)[C@@H](C)C(=O)[C@H](C(C)C)OC(=O)C[C@@H]1O [Aplidine, dehydrodidemnin B] (Pyruvoyl-P[dNMeL]T[X1]LP[NMeY](Me); ester 3-C) | highly effective, producing a very large increase in current amplitude | no effect on blood pressure | potent L-type calcium channel enhancer
